Experimental data published in patent US7258861B2, “TNF-derived peptides for use in treating oedema” (Innogenetics N.V., priority 2001, dated 2007).

Columns and labels:
[1] = test system: lung microvascular endothelial cells; assay: Whole-cell patch clamp, membrane conductance in lung microvascular endothelial cells; type: cell-based, mouse
Description: (§1) Animals, cells and reagents. Male CBA/J or C57BL/6 mice, as well as male TNFR ½^0/0 C57BL/6 mice deficient in TNF receptors (Bruce et al., 1996) provided by H. Bluethmann, F. Hoffmann-La Roche, Basel, Switzerland, were used at the age of 8–10 weeks. Their care was in accordance with institutional guidelines. Lung microvascular endothelial cells were isolated from CBA/J mice and characterized as described (Jackson et al., 1990) using magnetic beads (Dynabeads M-450, Dynal, Oslo, Norway), covalently bound to a purified rat-anti-mouse PECAM-1 monoclonal antibody (donated by B. Imhof, University of Geneva). Microvascular lung endothelial cells were resuspended in DMEM containing 2 mM L-glutamine, 100 U/ml penicillin, […], 20% FCS, 40 U/ml heparin and […] endothelial cell growth supplement (Brunschwig Chemie, Basel, Switzerland). For patch clamp experiments, cells were plated onto 35×10 mm easy grip Petri dishes (Beckton Dickinson, Plymouth, UK), pre-coated with 0.2% gelatin (Sigma, Buchs, Switzerland). Resident peritoneal macrophages, isolated in ice cold RPMI containing antibiotics and 10 U/ml Heparin, were left to adhere onto 35×10 mm easy grip Petri dishes for 4 h, after which the non-adherent cells were removed. Cells were grown in RPMI 1640 containing 2 mM L-glutamine, 100 U/ml penicillin, 10 μpg/ml streptomycin and 10% fetal bovine serum (all from Gibco). For patch clamp, the macrophages ware used 24 h after isolation.
Electrophysiology. Cells were pretreated for 30 min with TNF, mutTNF and tip peptides at 37° C. in a buffer consisting of 145 mM NaCl, 3 mM KCl, 2mM CaCl2, 2mM MgCl2, 10 mM D-glucose, and 10mM Hepes, and pH-adjusted with NaOH to required value. Cells were then washed with the same buffer pH-adjusted at 7.3, and experiments were performed using the tight-seal, whole-cell recording technique. Currents were recorded with an Axopatch-200A amplifier (Axon Instrument Inc, Foster City, Calif., USA), low pass-filtered at 1 kHz. Digitalization and off-line analysis was performed using the WCP program (J. Dempster, Strathclyde Electrophysiology Software, Glasgow, UK). Patch pipettes were pulled from borosilicate glass and fire polished to have an open resistance of 3–5 MW with an internal solution containing […], 2 mM MgCl2, 10mM EGTA, 20 mM TEA-Cl, 10 mM D-glucose 10 mM Hepes, pH-adjusted to 7.3 with CsOH. Series resistances were kept under 10 MW. Capacitance and series resistance compensation were applied and set to 70%. All experiments were done at room temperature. Results are given as mean ±SEM, unless otherwise indicated. Analysis of variance was performed on currents and membrane conductance values, with post-hoc Dunn-Bonferroni test for significance of differences observed between two groups. A P value of 0.05 was considered significant.

[2] = test system: resident peritoneal macrophages; assay: Whole-cell patch clamp in resident peritoneal macrophages; type: cell-based, mouse; conditions: 30 min preincubation, acidic pH
Description: as §1, with “Cells were grown in RPMI 1640 containing 2 mM L-glutamine, 100 U/ml penicillin, 10 μpg/ml streptomycin and 10% fetal bovine serum (all from Gibco). For patch clamp, the macrophages ware used 24 h after isolation.” left out
Electrophysiology. […] Currents were recorded with an Axopatch-200A amplifier (Axon Instrument Inc, Foster City, Calif., USA), low pass-filtered at 1 kHz. […]

[3] = Quenching of tryptophan fluorescence by brominated lipids; conditions: acidic pH
Description: In order to investigate whether chloride efflux was due to membrane binding or membrane insertion of TNF, we have analyzed whether brominated lipids were able to quench the intrinsic fluorescence of TNF and mutTNF upon membrane interaction. Brominated lipids have been useful in determining the topology of membrane proteins (Bolon et al., 1990) (Markello et al., 1985) as well as studying the membrane interaction of pore-forming toxins (Gonzalez-Manas et al., 1992) (Van der Goot et al., 1991) (Vecsey-Semjen et al., 1997). TNF contains two tryptophan residues, one at the top of the receptor binding domain and one at the top of the so called tip domain. If the tip of the TNF trimer were to insert into the lipid bilayer, the fluorescence of Trp-113 should be quenched upon insertion into liposomes composed of dioleoylphosphatidylglycerol that had bromines attached at positions 9 and 10 of the acyl chains. We have indeed previously observed that tryptophans located at the boundary between the lipid head groups and the acyl chains were succeptible to bromide quenching.

isolated rat lungs = assay: Isolated blood perfused flooded rat lung (weight, lung mechanics, PV curves, histology)
Description: Rats. For the ex vivo experiments, 31 Sprague-Dawley rats (300 to 350 g) were tracheotomized and mechanically ventilated (40% oxygen in air) under isoflurane anesthesia. The experimental protocol was reviewed and approved by the Ethics Committee for Animal Research and by the Veterinary Office of our institution. The femoral vessels were cannulated for blood sampling, fluid replacement, and continuous arterial blood pressure monitoring. Following anticoagulation (1.5 IU/g i.v. heparin), 20 ml of blood were withdrawn and replaced by an equal volume of dextran-40 (Macrodex 10% in normosaline) to serve as priming volume for the isolated perfusion circuit. The heart-lung block was prepared as described by Ma et al., 2000, weighed and assigned to one of four groups. […] The lungs were suspended, mechanically ventilated, and perfused at constant pressure with autologous blood as described by Ma et al., 2000.
An inspiratory and expiratory quasi-static pressure-volume (PV) curve was performed at the end of the 2-hour reperfusion period by inflating and then deflating the lungs at a constant rate (0.3 ml/sec) using an automated infusion pump. A sigh was applied in all groups every 15 minutes to minimize atelectasis formation. The blood pH was maintained between 7.3 and 7.5 and, if necessary, corrected with sodium bicarbonate 8.4% or a change of the inspired CO2 as required by the blood gas analysis. Every 30 minutes, a blood sample was collected for blood gas analysis as well as for hematocrit and electrolyte concentration.
Inclusion criteria. Immediately following the start of reperfusion, the preparation had to fulfill three technical inclusion criteria: • 1) left atrial pressure (LAP) 5-10 mmHg; • 2) peak airway pressure (AWP) <15 cmH2O; and • 3) pulmonary blood flow (PBF) >10 ml/min. […] The included lungs were then flooded with gentle intratracheal instillation of 2 ml normal saline and the recorded variables measured for 2 subsequent hours.
Histological analysis. Random lung samples were fixed for light and electron microscopy and analyzed by pathologists blinded to the lung's protocol group assignment.

Substance: TNF: E.coli-derived recombinant murine TNF
- induced increase in conductance in presence of amiloride ([1]; 100 μM amiloride added during pretreatment at pH 6.0): abrogated
- whole cell current / membrane conductance ([1]; 30 min preincubation at acidic pH (pH 6), TNF, mutTNF 100 ng/ml, peptides 100 μg/ml): significant increase in outward and, to a lesser extent, inward current
- reversal potential of induced conductance ([1]; endothelial cells): about 0 mV
- whole cell current / membrane conductance ([1]; preincubation at pH 7.3 (neutral pH)): did not occur
- whole cell current [2]: significant increase in outward
- fluorescence quenching by brominated lipids [3]: unable to see any fluorescence quenching
- lung weight change over time after alveolar flooding (isolated rat lungs; 2 hours reperfusion after 2 ml saline, TNF 5 μg, peptides 1 mg): no significant change in weight over time
- lung mechanics (peak AWP, Cdyn, Raw) after alveolar flooding (isolated rat lungs; 2 hours reperfusion, TNF 5 μg, peptides 1 mg): no difference from the saline-treated group
- lower inflection point of inspiratory quasi-static PV curve (isolated rat lungs; end of 2-hour reperfusion, TNF 5 μg, peptide 1 mg): 20.0±0.8 cmH2O
- leukocyte infiltration (lung histology) (isolated rat lungs; hematoxylin-stained slices, compared to controls): significantly increased leukocyte infiltration
- endothelial flaps and epithelial blebs (electron microscopy) (isolated rat lungs; pretreated lungs after flooding and 2 hours reperfusion): prominent numerous endothelial flaps
